How the values were obtained:
MERS-CoV 3CLpro = MERS-CoV 3CLpro (Middle East respiratory syndrome-related coronavirus, UniProt K9N7C7); experiment: biochemical
SARS-CoV 3CLpro = SARS-CoV 3CLpro (Severe acute respiratory syndrome coronavirus, UniProt P0C6X7); experiment: biochemical
HCoV-229E 3CLpro = HCoV-229E 3CLpro (Human coronavirus 229E, UniProt P0C6X1); experiment: HCoV-229E 3CLpro inhibition assay (FRET); format: biochemical
SARS-CoV-2 3CLpro = SARS-CoV-2 3CLpro (Severe acute respiratory syndrome coronavirus 2, UniProt P0DTD1); experiment: biochemical

HCoV-229E 3CLpro, sequence (P0C6X1 2966-3267): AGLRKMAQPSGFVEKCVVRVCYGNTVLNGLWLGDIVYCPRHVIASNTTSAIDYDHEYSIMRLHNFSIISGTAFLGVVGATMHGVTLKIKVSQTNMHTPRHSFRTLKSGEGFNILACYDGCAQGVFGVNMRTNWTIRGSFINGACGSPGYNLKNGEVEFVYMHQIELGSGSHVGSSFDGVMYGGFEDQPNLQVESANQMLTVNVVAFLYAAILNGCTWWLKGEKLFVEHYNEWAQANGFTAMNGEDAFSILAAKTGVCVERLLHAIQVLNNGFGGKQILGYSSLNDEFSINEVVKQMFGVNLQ
MERS-CoV 3CLpro, sequence (K9N7C7 3248-3553): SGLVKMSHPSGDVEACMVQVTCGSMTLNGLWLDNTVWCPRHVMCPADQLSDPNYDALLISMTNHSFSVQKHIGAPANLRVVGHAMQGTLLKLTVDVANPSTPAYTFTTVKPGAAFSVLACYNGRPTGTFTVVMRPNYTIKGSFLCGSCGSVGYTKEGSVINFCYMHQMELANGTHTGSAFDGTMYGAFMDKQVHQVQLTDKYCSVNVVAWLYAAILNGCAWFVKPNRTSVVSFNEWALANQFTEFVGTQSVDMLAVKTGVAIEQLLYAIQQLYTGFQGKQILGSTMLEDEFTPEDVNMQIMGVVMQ

Compound	IC50 (MERS-CoV 3CLpro) [nM]	IC50 (SARS-CoV 3CLpro) [nM]	IC50 (HCoV-229E 3CLpro) [nM]	IC50 (SARS-CoV-2 3CLpro) [nM]
CC[C@H](C)[C@H](NC(=O)C1(F)CC1)C(=O)N1C[C@H]2[C@@H]([C@H]1C(=O)NN(C[C@@H]1CCCNC1=O)C(=O)[C@H](F)Cl)C2(C)C [Example 166a, N-[(1S,2S)-1-[(1R,2S,5S)-2-[[[(2R)-2-chloro-2-fluoro-acetyl]-[[(3S)-2-oxo-3-piperidyl]methyl]amino]carbamoyl]-6,6-dimethyl-3-azabicyclo[3.1.0]hexane-3-carbonyl]-2-methyl-butyl]-1-fluoro-cyclopropanecarboxamide]	229	18	47	13
CCC(C)(C)[C@H](NC(=O)C1(F)CC1)C(=O)N1C[C@H]2[C@@H]([C@H]1C(=O)NN(C[C@@H]1CCNC1=O)C(=O)[C@@H](F)Cl)C2(C)C [Example 145, N-[(1S)-1-[(1R,2S,5S)-2-[[[(2S)-2-chloro-2-fluoro-acetyl]-[[(3S)-2-oxopyrrolidin-3-yl]methyl]amino]carbamoyl]-6,6-dimethyl-3-azabicyclo[3.1.0]hexane-3-carbonyl]-2,2-dimethyl-butyl]-1-fluoro-cyclopropanecarboxamide]	152	27	77	18
CC1(C)[C@@H]2[C@@H](C(=O)NN(C[C@@H]3CCNC3=O)C(=O)[C@H](F)Cl)N(C(=O)/C=C/c3cc(C(F)(F)F)cc(C(F)(F)F)c3)C[C@@H]21 [Example 180, (1R,2S,5S)-3-[(E)-3-[3,5-bis(trifluoromethyl)phenyl]prop-2-enoyl]-N′-[(2R)-2-chloro-2-fluoro-acetyl]-6,6-dimethyl-N′—[[(3S)-2-oxopyrrolidin-3-yl]methyl]-3-azabicyclo[3.1.0]hexane-2-carbohydrazide]	657	786	241	491
CC[C@H](C)[C@H](NC(=O)C(F)(F)F)C(=O)N1C[C@H]2[C@@H]([C@H]1C(=O)NN(C[C@@H]1CCCNC1=O)C(=O)[C@H](F)Cl)C2(C)C (single isomer, unassigned) [Example 165a]	185	12	38	11
CC(C)(C)[C@H](NC(=O)[C@H]1CC1(F)F)C(=O)N1C[C@H]2[C@@H]([C@H]1C(=O)NN(C[C@@H]1CCNC1=O)C(=O)[C@@H](F)Cl)C2(C)C [Example 96, (1R)—N-[(1S)-1-[(1R,2S,5S)-2-[[[(2S)-2-chloro-2-fluoro-acetyl]-[[(3S)-2-oxopyrrolidin-3-yl]methyl]amino]carbamoyl]-6,6-dimethyl-3-azabicyclo[3.1.0]hexane-3-carbonyl]-2,2-dimethyl-propyl]-2,2-difluoro-cyclopropanecarboxamide]	63	14	25	11
CC(C)(C)[C@H](NC(=O)C1(F)CC1)C(=O)N1C[C@H]2[C@@H]([C@H]1C(=O)NN(C[C@@H]1CCNC1=O)C(=O)[C@H](F)Cl)C2(C)C [Example 83, N-[(1S)-1-[(1R,2S,5S)-2-[[[(2R)-2-chloro-2-fluoro-acetyl]-[[(3S)-2-oxopyrrolidin-3-yl]methyl]amino]carbamoyl]-6,6-dimethyl-3-azabicyclo[3.1.0]hexane-3-carbonyl]-2,2-dimethyl-propyl]-1-fluoro-cyclopropanecarboxamide]	97	10	31	9
CC(F)C(=O)N[C@H](C(=O)N1C[C@@H]2CCC[C@@H]2[C@H]1C(=O)NN(C[C@@H]1CCNC1=O)C(=O)[C@H](F)Cl)C(C)(C)C (mixture of isomers) [Example 36, Rac-2-fluoro-N-[(1S)-2,2-dimethyl-1-[(3S,3aS,6aR)-3-[[[(2R)-2-chloro-2-fluoro-acetyl]-[[(3S)-2-oxopyrrolidin-3-yl]methyl]amino]carbamoyl]-3,3a,4,5,6,6a-hexahydro-1H-cyclopenta[c]pyrrole-2-carbonyl]propyl]propanamide]	93	12	34	7
CC(F)(F)C(=O)N[C@H](C(=O)N1C[C@H]2[C@@H]([C@H]1C(=O)NN(C[C@@H]1CCNC1=O)C(=O)[C@@H](F)Cl)C2(C)C)C(C)(C)C [Example 85, N-[(1S)-1-[(1R,2S,5S)-2-[[[(2S)-2-chloro-2-fluoro-acetyl]-[[(3S)-2-oxopyrrolidin-3-yl]methyl]amino]carbamoyl]-6,6-dimethyl-3-azabicyclo[3.1.0]hexane-3-carbonyl]-2,2-dimethyl-propyl]-2,2-difluoro-propanamide]	69	12	21	12
CCC(C)(C)[C@H](NC(=O)C1CC1)C(=O)N1CC(C)(C)C[C@H]1C(=O)NN(C[C@@H]1CCCNC1=O)C(=O)[C@H](F)Cl [Example 168a, N-[(1S)-1-[(2S)-2-[[[(2R)-2-chloro-2-fluoro-acetyl]-[[(3S)-2-oxo-3-piperidyl]methyl]amino]carbamoyl]-4,4-dimethyl-pyrrolidine-1-carbonyl]-2,2-dimethyl-butyl]cyclopropanecarboxamide]	290	16	104	11
CC[C@H](C)[C@H](NC(=O)C1CC1(F)F)C(=O)N1C[C@H]2[C@@H]([C@H]1C(=O)NN(C[C@@H]1CCNC1=O)C(=O)[C@H](F)Cl)C2(C)C (mixture of isomers) [Example 53, Rac-2,2-difluoro-N-[(1S,2S)-2-methyl-1-[(1R,2S,5S)-6,6-dimethyl-2-[[[(2R)-2-chloro-2-fluoro-acetyl]-[[(3S)-2-oxopyrrolidin-3-yl]methyl]amino]carbamoyl]-3-azabicyclo[3.1.0]hexane-3-carbonyl]butyl]cyclopropanecarboxamide]	87	13	32	8
CC[C@H](C)[C@H](NC(=O)C(F)F)C(=O)N1C[C@@H]2CCC[C@@H]2[C@H]1C(=O)NN(C[C@@H]1CCNC1=O)C(=O)[C@@H](F)Cl [Example 127, N-[(1S,2S)-1-[(3S,3aS,6aR)-3-[[[(2S)-2-chloro-2-fluoro-acetyl]-[[(3S)-2-oxopyrrolidin-3-yl]methyl]amino]carbamoyl]-3,3a,4,5,6,6a-hexahydro-1H-cyclopenta[c]pyrrole-2-carbonyl]-2-methyl-butyl]-2,2-difluoro-acetamide]	68	12	35	10
CC[C@@H](C)[C@H](NC(=O)C(F)F)C(=O)N1C[C@H]2[C@@H]([C@H]1C(=O)NN(C[C@@H]1CCNC1=O)C(=O)[C@@H](F)Cl)C2(C)C [Example 120, N-[(1S,2R)-1-[(1R,2S,5S)-2-[[[(2S)-2-chloro-2-fluoro-acetyl]-[[(3S)-2-oxopyrrolidin-3-yl]methyl]amino]carbamoyl]-6,6-dimethyl-3-azabicyclo[3.1.0]hexane-3-carbonyl]-2-methyl-butyl]-2,2-difluoro-acetamide]	98	34	38	19
CC[C@H](C)[C@H](NC(=O)[C@H](F)Cl)C(=O)N1C[C@@H]2CCC[C@@H]2[C@H]1C(=O)NN(C[C@@H]1CCCNC1=O)C(=O)[C@H](F)Cl [Example 190, (2R)—N-[(1S,2S)-1-[(3S,3aS,6aR)-3-[[[(2R)-2-chloro-2-fluoro-acetyl]-[[(3S)-2-oxo-3-piperidyl]methyl]amino]carbamoyl]-3,3a,4,5,6,6a-hexahydro-1H-cyclopenta[c]pyrrole-2-carbonyl]-2-methyl-butyl]-2-chloro-2-fluoro-acetamide]	59	11	29	8
CC[C@H](C)[C@H](NC(=O)[C@H](F)Cl)C(=O)N1C[C@H]2[C@@H]([C@H]1C(=O)NN(C[C@@H]1CCCNC1=O)C(=O)[C@H](F)Cl)C2(C)C [Example 188, (2R)-2-chloro-N-[(1S,2S)-1-[(1R,2S,5S)-2-[[[(2R)-2-chloro-2-fluoro-acetyl]-[[(3S)-2-oxo-3-piperidyl]methyl]amino]carbamoyl]-6,6-dimethyl-3-azabicyclo[3.1.0]hexane-3-carbonyl]-2-methyl-butyl]-2-fluoro-acetamide]	68	12	26	8
CC[C@@H](C)[C@H](NC(=O)C1(F)CC1)C(=O)N1C[C@H]2[C@@H]([C@H]1C(=O)NN(C[C@@H]1CCNC1=O)C(=O)[C@@H](F)Cl)C2(C)C [Example 121, N-[(1S,2R)-1-[(1R,2S,5S)-2-[[[(2S)-2-chloro-2-fluoro-acetyl]-[[(3S)-2-oxopyrrolidin-3-yl]methyl]amino]carbamoyl]-6,6-dimethyl-3-azabicyclo[3.1.0]hexane-3-carbonyl]-2-methyl-butyl]-1-fluoro-cyclopropanecarboxamide]	131	50	43	26
CC(C)(C)[C@H](NC(=O)C(F)(F)C(F)(F)F)C(=O)N1C[C@H]2[C@@H]([C@H]1C(=O)NN(C[C@@H]1CCNC1=O)C(=O)[C@H](F)Cl)C2(C)C [Example 22, N-[(1S)-1-[(1R,2S,5S)-2-[[[(2R)-2-chloro-2-fluoro-acetyl]-[[(3S)-2-oxopyrrolidin-3-yl]methyl]amino]carbamoyl]-6,6-dimethyl-3-azabicyclo[3.1.0]hexane-3-carbonyl]-2,2-dimethyl-propyl]-2,2,3,3,3-pentafluoro-propanamide]	183	31	76	8

— US20250059171A1 (Hoffmann-La Roche Inc., priority 2021, published 2025)
